Laboratory results as given in patent US20240116892A1, “HETEROCYCLIC AMIDE AND UREA COMPOUNDS AS JAK2 INHIBITORS” (Ajax Therapeutics, Inc., priority 2022, published 2024).
pKd: −log10 of the molar value.

Molecular target: JAK2 (JH1 domain-catalytic, Y1007F, Y1008F) kinase (Homo sapiens (Human), UniProt O60674, Y1007F/Y1008F)
Assay: JAK2 JH1 Domain Binding Assay
Settings: qPCR readout
Method in brief: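 JH1 catalytic domain (Y1007F/Y1008F) expressed as NFkB DNA-binding-domain fusion in HEK293 cells, DNA-tagged. Competition with immobilized biotinylated ligand on streptavidin beads, 1 h at RT in PBS/Tween/BSA/DTT; bound kinase eluted with free ligand and quantified by qPCR.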

Chain of JAK2 (JH1 domain-catalytic, Y1007F, Y1008F) kinase (O60674 849-1124 Y1007F/Y1008F): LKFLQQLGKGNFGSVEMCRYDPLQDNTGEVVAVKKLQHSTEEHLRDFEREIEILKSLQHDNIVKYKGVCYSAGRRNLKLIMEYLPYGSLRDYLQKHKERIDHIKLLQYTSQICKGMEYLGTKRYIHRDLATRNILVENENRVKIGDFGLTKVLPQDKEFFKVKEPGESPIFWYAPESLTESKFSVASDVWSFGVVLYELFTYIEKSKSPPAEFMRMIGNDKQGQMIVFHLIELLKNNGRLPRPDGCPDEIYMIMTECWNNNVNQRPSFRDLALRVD

Row | pKd | SMILES
1 | 6.00 to 7.30 | COCc1cc2nc(N3CC[C@@H](N(C)C(=O)Nc4cc(C(F)(F)F)cn(C)c4=O)C[C@H]3C)cnc2[nH]1 [Example I-127-b, 1-((2R,4R)-1-(6-(methoxymethyl)-5H-pyrrolo[2,3-b]pyrazin-2-yl)-2-methylpiperidin-4-yl)-1-methyl-3-(1-methyl-2-oxo-5-(trifluoromethyl)-1,2-dihydropyridin-3-yl)urea]
2 | 7.30 to 8.00 | Cn1cc(C(F)(F)F)cc(NC(=O)N2CCO[C@H]3CN(c4cnc5[nH]ccc5n4)CC[C@@H]32)c1=O [Example I-128-a, (4aS,8aS)-N-(1-methyl-2-oxo-5-(trifluoromethyl)-1,2-dihydropyridin-3-yl)-6-(5H-pyrrolo[2,3-b]pyrazin-2-yl)octahydro-1H-pyrido[3,4-b][1,4]oxazine-1-carboxamide]
3 | > 8.00 | Cn1cc(C(F)(F)F)cc(NC(=O)N2CCO[C@@H]3CN(c4cnc5[nH]ccc5n4)CC[C@H]32)c1=O [Example I-128-b, (4aR,8aR)-N-(1-methyl-2-oxo-5-(trifluoromethyl)-1,2-dihydropyridin-3-yl)-6-(5H-pyrrolo[2,3-b]pyrazin-2-yl)octahydro-1H-pyrido[3,4-b][1,4]oxazine-1-carboxamide]
4 | 6.00 to 7.30 | CO[C@H]1C[C@@H](n2[nH]c3ncc(N4CCC(N(C)C(=O)Nc5cc(C(F)(F)F)cn(C)c5=O)CC4)cc3c2=O)C1 [Example I-130, 1-(1-(2-((1s,3s)-3-methoxycyclobutyl)-3-oxo-2,3-dihydro-1H-pyrazolo[3,4-b]pyridin-5-yl)piperidin-4-yl)-1-methyl-3-(1-methyl-2-oxo-5-(trifluoromethyl)-1,2-dihydropyridin-3-yl)urea]
5 | > 8.00 | COc1n[nH]c2ncc(N3CC[C@H](N(C)C(=O)Nc4cc(C(F)(F)F)cn(C)c4=O)[C@H](C)C3)cc12 [Example I-131-a, 1-((3R,4S)-1-(3-methoxy-1H-pyrazolo[3,4-b]pyridin-5-yl)-3-methylpiperidin-4-yl)-1-methyl-3-(1-methyl-2-oxo-5-(trifluoromethyl)-1,2-dihydropyridin-3-yl)urea]
6 | 7.30 to 8.00 | COCCOc1n[nH]c2ncc(N3CC[C@H](N(C)C(=O)Nc4cc(C(F)(F)F)cn(C)c4=O)C[C@@H]3C)cc12 [Example I-132-a, 1-((2S,4S)-1-(3-(2-methoxyethoxy)-1H-pyrazolo[3,4-b]pyridin-5-yl)-2-methylpiperidin-4-yl)-1-methyl-3-(1-methyl-2-oxo-5-(trifluoromethyl)-1,2-dihydropyridin-3-yl)urea]
7 | 7.30 to 8.00 | COCCOc1n[nH]c2ncc(N3CC[C@@H](N(C)C(=O)Nc4cc(C(F)(F)F)cn(C)c4=O)C[C@H]3C)cc12 [Example I-132-b, 1-((2R,4R)-1-(3-(2-methoxyethoxy)-1H-pyrazolo[3,4-b]pyridin-5-yl)-2-methylpiperidin-4-yl)-1-methyl-3-(1-methyl-2-oxo-5-(trifluoromethyl)-1,2-dihydropyridin-3-yl)urea]
8 | > 8.00 | COc1n[nH]c2ncc(N3CC[C@H](N(C)C(=O)Nc4cc(C(F)(F)F)cn(C)c4=O)C[C@@H]3C)cc12 [Example I-133-a, 1-((2S,4S)-1-(3-methoxy-1H-pyrazolo[3,4-b]pyridin-5-yl)-2-methylpiperidin-4-yl)-1-methyl-3-(1-methyl-2-oxo-5-(trifluoromethyl)-1,2-dihydropyridin-3-yl)urea]

Row | SMILES | pKd
9 | CN(C(=O)Nc1cc(C(F)(F)F)cn(C)c1=O)C1CCN(c2cnn3cc(O[C@@H]4CC[C@H]4O)ncc23)CC1 [Example I-129-a, 1-(1-(6-((1R,2R)-2-hydroxycyclobutoxy)pyrazolo[1,5-a]pyrazin-3-yl)piperidin-4-yl)-1-methyl-3-(1-methyl-2-oxo-5-(trifluoromethyl)-1,2-dihydropyridin-3-yl)urea] | > 8.00
10 | CN(C(=O)Nc1cc(C(F)(F)F)cn(C)c1=O)C1CCN(c2cnn3cc(O[C@H]4CC[C@@H]4O)ncc23)CC1 [Example I-129-b, 1-(1-(6-((1S,2S)-2-hydroxycyclobutoxy)pyrazolo[1,5-a]pyrazin-3-yl)piperidin-4-yl)-1-methyl-3-(1-methyl-2-oxo-5-(trifluoromethyl)-1,2-dihydropyridin-3-yl)urea] | > 8.00
